Where no end group is shown, it is not given here.
How the values were obtained:
CCI rats [1] = format: in vivo, rat; details: i.t. administration, from peak effects of % MPE
Description: Implantation of i.t. catheters in rats was performed.
Thermal hyperalgesia was examined using an IITC analgesiometer (IITC Inc., Woodland Hills, Calif., USA). […] Paw withdrawal latency (PWL) in seconds was measured with a cutoff time of 30 seconds. PWL was recorded at 30, 60, 90, 120, 150, and 180 minutes after PCD-1 or gabapentin injection. PWL (s) was transformed to a percentage of the maximum possible effect (% MPE) using the following formula: % MPE=(post-drug latency−baseline)/(cutoff−baseline)×100%, where the post-drug latency was the response measured at 0, 30, 60, 90, 120, 150, or 180 minutes after injection of PCD-1, gabapentin, or vehicle. The baseline was the response measured immediately prior to i.t. injection, and the cutoff time was 30 seconds.

CCI rats [2] = test system: CCI rats
Description: The rat model of chronic constriction injury (CCI) was performed by following the previous reports or research. Implantation of i.t. catheters in rats was performed. The i.t. catheters (PE5 tubes: 9-cm long, 0.008-inch inner diameter, 0.014-inch outer diameter; Spectranetics, Colorado Springs, Colo., USA) were inserted via the atlanto-occipital membrane into the i.t. space at the level of the lumbar enlargement of the spinal cord, and externalized and fixed to the cranial aspect of the head. Five days after i.t. catheterization, CCI or mononeuropathy was induced by following a previous report. The 5-mm-long nerve segment of right sciatic nerve at the mid-thigh level was isolated from the surrounding tissues. Four ligatures (4-0 chromic gut) were loosely tied around the sciatic nerve with 1-mm intervals, and the wound was closed with sutures.
The narrow beam used in the present invention was a wooden beam 80 cm in length and 2.5 cm in width, suspended 100 cm from the ground by wooden supports at either end. Foam padding (1 m wide and approximately 12 cm thick) was placed beneath the beam to prevent injury to the rat in case of a fall. The cutoff time to cross the beam was 15 seconds for each rat. Rats were pre-trained before the test.

RAW264.7 cells = test system: RAW264.7 cells; parameters: dose or concentration left out as unconfirmed; details: PCD-1 for 24 h
Description: (A) RAW264.7 cells are treated with the indicated doses of PCD-1 for 24 h, and cell viability is then measured by Alamar blue assay to assess cytotoxicity.
In order to investigate regulation of iNOS and COX-2 by PCD-1, mouse macrophage and immune cells were treated with non-cytotoxic doses of PCD-1, and the effects on protein expression were examined.

rats = rats treated with PCD-1

Molecule	median effective dose (ED50) for anti-thermal hyperalgesia (CCI rats [1]) [µg]	latency to initiate crossing and total time to cross the beam (CCI rats [2]; CCI rats+PCD-1 (20 μg) vs CCI rats+vehicle, 0 to 480 minutes)	locomotor function (CCI rats [2]; rats, i.t. 20 μg)	Proliferation of RAW264.7 cells (cell viability, Alamar blue) (RAW264.7 cells)	alterations of external behavior (rats)
NCC1(CC(=O)O)CCCCC1 [gabapentin, reference compound]	2.3 ± 1.5				
FFHHIFRGIVHVGKTIHRLVTG [PCD-1, Piscidin-1] [listing 1 of 2 here]	9.5 ± 3.2				
FFHHIFRGIVHVGKTIHRLVTG [PCD-1, Piscidin-1] [listing 2 of 2 here]		No significant differences	did not affect	unaffected	nor did it result in any obvious alterations
